Measurements published in the NIST ThermoML archive (doi:10.1016/j.fluid.2015.10.026).

Details: Liquid, Brillouin light scattering

CCC(C)(C)OC [2-methoxy-2-methylbutane]
Details | speed of sound [m/s]
293.15 K, 0 kPa | 1133.3
293.15 K, 1000 kPa | 1139.7
293.15 K, 2500 kPa | 1149
293.15 K, 4000 kPa | 1158.3
293.15 K, 5500 kPa | 1167.7
293.15 K, 7000 kPa | 1177.2
293.15 K, 8500 kPa | 1186.7
293.15 K, 10000 kPa | 1196.4
303.15 K, 10 kPa | 1089.4
303.15 K, 1000 kPa | 1099.1
303.15 K, 2500 kPa | 1109.3
303.15 K, 4000 kPa | 1119.3
303.15 K, 5500 kPa | 1129.3
303.15 K, 7000 kPa | 1139.3
303.15 K, 8500 kPa | 1149.2
303.15 K, 10000 kPa | 1159
313.15 K, 10 kPa | 1046.4
313.15 K, 1000 kPa | 1058.3
313.15 K, 2500 kPa | 1069.4
313.15 K, 4000 kPa | 1080.3
313.15 K, 5500 kPa | 1091
313.15 K, 7000 kPa | 1101.4
313.15 K, 8500 kPa | 1111.7
313.15 K, 10000 kPa | 1121.8
323.15 K, 20 kPa | 1004.2
323.15 K, 1000 kPa | 1017.4
323.15 K, 2500 kPa | 1029.4
323.15 K, 4000 kPa | 1041.1
323.15 K, 5500 kPa | 1052.5
323.15 K, 7000 kPa | 1063.5
323.15 K, 8500 kPa | 1074.2
323.15 K, 10000 kPa | 1084.6
333.15 K, 20 kPa | 962.62
333.15 K, 1000 kPa | 976.26
333.15 K, 2500 kPa | 989.25
333.15 K, 4000 kPa | 1001.8
333.15 K, 5500 kPa | 1013.9
333.15 K, 7000 kPa | 1025.6
333.15 K, 8500 kPa | 1036.8
333.15 K, 10000 kPa | 1047.6
343.15 K, 40 kPa | 921.56
343.15 K, 1000 kPa | 934.97
343.15 K, 2500 kPa | 948.94
343.15 K, 4000 kPa | 962.37
343.15 K, 5500 kPa | 975.26
343.15 K, 7000 kPa | 987.61
343.15 K, 8500 kPa | 999.41
343.15 K, 10000 kPa | 1010.7
353.15 K, 60 kPa | 880.86
353.15 K, 1000 kPa | 893.5
353.15 K, 2500 kPa | 908.48
353.15 K, 4000 kPa | 922.83
353.15 K, 5500 kPa | 936.54
353.15 K, 7000 kPa | 949.61
353.15 K, 8500 kPa | 962.05
353.15 K, 10000 kPa | 973.86
363.15 K, 90 kPa | 840.4
363.15 K, 1000 kPa | 851.87
363.15 K, 2500 kPa | 867.87
363.15 K, 4000 kPa | 883.16
363.15 K, 5500 kPa | 897.74
363.15 K, 7000 kPa | 911.59
363.15 K, 8500 kPa | 924.74
363.15 K, 10000 kPa | 937.16
373.15 K, 120 kPa | 800.06
373.15 K, 1000 kPa | 810.06
373.15 K, 2500 kPa | 827.11
373.15 K, 4000 kPa | 843.38
373.15 K, 5500 kPa | 858.86
373.15 K, 7000 kPa | 873.55
373.15 K, 8500 kPa | 887.46
373.15 K, 10000 kPa | 900.58
383.15 K, 160 kPa | 759.72
383.15 K, 1000 kPa | 768.09
383.15 K, 2500 kPa | 786.2
383.15 K, 4000 kPa | 803.47
383.15 K, 5500 kPa | 819.89
383.15 K, 7000 kPa | 835.47
383.15 K, 8500 kPa | 850.21
383.15 K, 10000 kPa | 864.1
393.15 K, 200 kPa | 719.27
393.15 K, 1000 kPa | 725.95
393.15 K, 2500 kPa | 745.14
393.15 K, 4000 kPa | 763.44
393.15 K, 5500 kPa | 780.85
393.15 K, 7000 kPa | 797.37
393.15 K, 8500 kPa | 813
393.15 K, 10000 kPa | 827.74
403.15 K, 240 kPa | 678.61
403.15 K, 1000 kPa | 683.64
403.15 K, 2500 kPa | 703.93
403.15 K, 4000 kPa | 723.29
403.15 K, 5500 kPa | 741.73
403.15 K, 7000 kPa | 759.25
403.15 K, 8500 kPa | 775.83
403.15 K, 10000 kPa | 791.49
413.15 K, 300 kPa | 637.63
413.15 K, 1000 kPa | 641.15
413.15 K, 2500 kPa | 662.56
413.15 K, 4000 kPa | 683.02
413.15 K, 5500 kPa | 702.53
413.15 K, 7000 kPa | 721.09
413.15 K, 8500 kPa | 738.7
413.15 K, 10000 kPa | 755.35
423.15 K, 360 kPa | 596.25
423.15 K, 1000 kPa | 598.5
423.15 K, 2500 kPa | 621.05
423.15 K, 4000 kPa | 642.63
423.15 K, 5500 kPa | 663.25
423.15 K, 7000 kPa | 682.91
423.15 K, 8500 kPa | 701.6
423.15 K, 10000 kPa | 719.33
433.15 K, 440 kPa | 554.37
433.15 K, 1000 kPa | 555.68
433.15 K, 2500 kPa | 579.38
433.15 K, 4000 kPa | 602.12
433.15 K, 5500 kPa | 623.89
433.15 K, 7000 kPa | 644.7
433.15 K, 8500 kPa | 664.54
433.15 K, 10000 kPa | 683.41
443.15 K, 540 kPa | 511.92
